Where a SMILES comes first, the peptide text is derived from it. [ ]: non-standard residue; d: D form. Ala(azulen-1-yl) = N[C@@H](Cc1ccc2cccccc1-2)C(=O)O; Trp(4-CN) = N#Cc1cccc2[nH]cc(C[C@H](N)C(=O)O)c12
Test system: U2OS cells
Experiment: Live cell fluorescence microscopy of peptide uptake
Settings: 37 °C, excitation 340 nm
[1] = 50 µM peptide in OPTI-MEM, 20 min, 0.5% DMSO, washed once, ET460/50m (4CNW) or ET395/25x (AzAla) emission filter

Protocol: To evaluate their suitability for tracking peptide penetration into cells, 4CNW/AzAla were appended onto the N‐terminus of a well‐characterized cell penetrating peptide, TAT‐NLS P3 (tryptophan was included as a negative control). Human bone osteosarcoma epithelial cells (U2OS) were incubated with peptides 4CNW‐P3, AzAla‐P3, W‐P3 for 20 minutes at a concentration of 50 μM in OPTI‐MEM. A moderate concentration (50 μM) of peptide was required for detection due to current limitations in the sensitivity of our microscopy system. Cells were then washed once with OPTI‐MEM and imaged on a Nikon Ti Eclipse inverted microscope with fluorescence excitation at 340 nm. An ET460/50 m single bandpass emission filter was used to image 4CNW‐P3 and a ET395/25x single bandpass emission filter was used to image AzAla‐P3.
Figure 3 Uptake of 4CNW/AzAla labelled peptides by living cells. a Live cell fluorescence microscopy images of U2OS cells after 20 min incubation with linear/cyclic peptides (50 μM). Fluorescence of peptides is shown in blue (4CNW) or cyan (AzAla). Scale bar: 20 μm. Images were obtained by using fluorescence excitation at 340 nm with a ET460/50 m (4CNW) or ET395/25x (AzAla) single bandpass emission filter and a Plan Fluor 60x/A1.2 WI. b Live cell fluorescence microscopy images of U2OS cells after 24 h incubation with 4CNW‐P4 peptide (50 μM). Fluorescence of peptides is shown in blue (4CNW). Scale bar: 20 μm. Images were obtained by using fluorescence excitation at 340 nm with a ET460/50 m (4CNW) single bandpass emission filter and a Plan Fluor 40X/1.3NA objective. c Flow cytometry of U2OS cells incubated with DMSO, 4CNW‐P3 or 4CNW‐P4 at the indicated times. Fluorescence of a single cell suspension was acquired with a 355 nm laser, 450‐50 detector and FACS‐Diva software. Numbers indicated in graphs show percentage of positive cells.
To assess if 4CNW‐P4 was penetrating cells, U2OS cells were incubated with 50 μM peptide for 24 h. Cells were then imaged by fluorescence microscopy using the same conditions as described above.

| SMILES | intracellular fluorescence (cell uptake) [1] | intracellular fluorescence (cell uptake) (50 µM peptide, 24 h, ET460/50m emission filter) |
| --- | --- | --- |
| CC(=O)N[C@@H](Cc1c[nH]c2cccc(C#N)c12)C(=O)NCC(=O)N[C@@H](CCCNC(=N)N)C(=O)N[C@@H](CCCCN)C(=O)N[C@@H](CCCCN)C(=O)N[C@@H](CCCNC(=N)N)C(=O)N[C@@H](CCCNC(=N)N)C(=O)N[C@@H](CCC(N)=O)C(=O)N[C@@H](CCCNC(=N)N)C(=O)N[C@@H](CCCNC(=N)N)C(=O)N[C@@H](CCCNC(=N)N)C(=O)N1CCC[C@H]1C(=O)N[C@@H](CCC(N)=O)C(=O)N1CCC[C@H]1C(=O)N[C@@H](CCCCN)C(=O)N[C@@H](CCCCN)C(=O)N[C@@H](CCCCN)C(=O)N[C@@H](CCCNC(=N)N)C(=O)N[C@@H](CCCCN)C(=O)N[C@H](C(N)=O)C(C)C [4CNW‐P3] (Ac-[Trp(4-CN)]GRKKRRQRRRPQPKKKRKV-NH2) | considerable intracellular fluorescence | – |
| CC[C@H](C)[C@@H]1NC(=O)[C@H](Cc2c[nH]c3ccccc23)NC(=O)[C@H](Cc2c[nH]c3cccc(C#N)c23)NC(=O)[C@H](CC(=O)O)NC(=O)CNC(=O)[C@H](CO)NC(=O)[C@H](CC(=O)O)NC(=O)[C@H](CC(=O)O)NC(=O)[C@H](CC(C)C)NC(=O)[C@H](Cc2ccc(O)cc2)NC(=O)[C@H](CC(C)C)NC(=O)[C@@H](Cc2c[nH]c3ccccc23)NC(=O)CSC[C@@H](C(=O)NCC(N)=O)NC1=O [4CNW‐P4] | – | appreciable intracellular fluorescence |
| CC(=O)N[C@@H](Cc1ccc2cccccc1-2)C(=O)NCC(=O)N[C@@H](CCCNC(=N)N)C(=O)N[C@@H](CCCCN)C(=O)N[C@@H](CCCCN)C(=O)N[C@@H](CCCNC(=N)N)C(=O)N[C@@H](CCCNC(=N)N)C(=O)N[C@@H](CCC(N)=O)C(=O)N[C@@H](CCCNC(=N)N)C(=O)N[C@@H](CCCNC(=N)N)C(=O)N[C@@H](CCCNC(=N)N)C(=O)N1CCC[C@H]1C(=O)N[C@@H](CCC(N)=O)C(=O)N1CCC[C@H]1C(=O)N[C@@H](CCCCN)C(=O)N[C@@H](CCCCN)C(=O)N[C@@H](CCCCN)C(=O)N[C@@H](CCCNC(=N)N)C(=O)N[C@@H](CCCCN)C(=O)N[C@H](C(N)=O)C(C)C [AzAla‐P3] (Ac-[Ala(azulen-1-yl)]GRKKRRQRRRPQPKKKRKV-NH2) | considerable intracellular fluorescence | – |
